Like-named read-outs stand apart in the source and are kept apart here.
What was measured:
healthy participants [1] = assay: Phase 1 ABPM study, safety (adverse events, ECG); format: in vivo, human
Method: This was a Phase 1, randomized, double-blind, placebo-controlled, repeat dose, 2-period cross-over study to investigate the effect of BIIB074 300-400 mg bid on ambulatory blood pressure (ABP) in healthy participants (FIG. 2). The study comprised: screening (to occur a maximum of 30 days before the first baseline assessment); two 36-day treatment periods, each preceded by a baseline visit and separated by a 7-day washout (to minimize possible carry over effects); and a follow-up period of 7-14 days after last dose. Prior to this study, no females had received BIIB074; for this reason, a single dose BIIB074 session at the dose level of 400 mg was also conducted in female participants one week prior to the period 1 baseline visit. Following this session, some participants were predicted to exceed the predefined PK limit (area under the plasma concentration-time curve [AUC] 97 μg·h/mL) when receiving 400 mg bid at steady state. Therefore, in the subsequent phases of the study, all female participants received a lower dose of 300 mg bid (males received 400 mg bid).
Safety was assessed through monitoring of adverse events (AEs), vital signs, electrocardiogram (ECG), and laboratory safety tests (including clinical chemistry).
The safety population was the primary analysis population for this study and included all participants who received one or more doses of BIIB074. The PK population was defined as participants in the safety population for whom a PK sample was obtained and analyzed.

[2] = Phase 1 study of effect of UGT inhibition by valproic acid on PK of BIIB074; format: in vivo, human; conditions: for AUC(0-inf) / AUC(0-t) / Cmax: human, plasma, oral; for AUC(0-inf): read-out: AUCinf, Geo LS mean; for AUC(0-t): read-out: AUClast, Geo LS mean; for Cmax: read-out: Cmax, Geo LS mean
From the text: In clinical practice BIIB074 may be coadministered with UGT inhibitors, which could potentially increase exposure to BIIB074 by reducing the extent of BIIB074 metabolism by UGTs. Valproic acid, which has long been used as a medication to treat seizures and bipolar disorder, is a non specific inhibitor of UGTs and has been used as a probe to determine the effect of UGT inhibition on the PK of compounds that are metabolized by multiple UGTs. Herein, the potential of the UGT inhibitor valproic acid to alter the single dose PK, safety, and tolerability of BIIB074 was assessed to inform the feasibility and safety of coadministration of BIIB074 with compounds known to inhibit UGTs.
• To evaluate the effect of multiple doses of the uridine diphosphate glucuronosyltransferase (UGT) inhibitor valproic acid on the single dose PK of BIIB074. • The primary endpoints that relate to this objective are: maximum observed concentration (Cmax), area under the curve (AUC) from time 0 to infinity (AUCinf), and AUC from time 0 to time of the last measurable concentration (AUClast) for BIIB074. • Other endpoints that relate to the primary objective are the time to reach Cmax (Tmax), time of the last measurable concentration (Tlast), t1/2 apparent clearance (CL/F), and apparent volume of distribution (V/F) for BIIB074.

[3] = system: patients with lumbosacral radiculopathy; conditions: PLSR, 350 mg bid, Phase 2, cited from earlier work
healthy participants [4] = assay: Phase 1 cross-over study, ambulatory blood pressure monitoring (ABPM); format: in vivo, human; conditions: one-sided 95% CI excluding effect ≥5 mmHg
[5] = 400 mg single dose, females, N = 22
[6] = 300-400 mg bid repeat dosing, N = 54
[7] = BIIB074 with valproic acid/BIIB074 alone
[8] = single dose BIIB074 with valproic acid

In the case of `Cl.NC(=O)[C@@H]1CC[C@H](c2ccc(OCc3ccccc3F)cc2)N1` [Example 1, (5R)-5-(4-{[(2-Fluorophenyl)methyl]oxy}phenyl)-L-prolinamide hydrochloride], the “Severity of all AEs” value (healthy participants [1]; 400 mg single dose in females) is reported as “mild in nature”, the Diarrhoea (healthy participants [1]; [5]) is reported as 0 n (%) and the Dizziness (healthy participants [1]; [5]) is reported as 5 (23) n (%). The Fatigue (healthy participants [1]; [5]) was 0 n (%), the Headache (healthy participants [1]; [5]) was 6 (27) n (%) and the “Hypersensitivity (allergy symptoms)” value (healthy participants [1]; [5]) was 0 n (%). For the same compound, the Nasopharyngitis (healthy participants [1]; [5]) was 0 n (%), the Nausea (healthy participants [1]; [5]) was 3 (14) n (%) and the Oropharyngeal pain (healthy participants [1]; [5]) was 0 n (%). The Pain in extremity (healthy participants [1]; [5]) was 0 n (%), the “Participants with any AE” value (healthy participants [1]; [5]) was 12 (55) n (%) and the Pyrexia (healthy participants [1]; [5]) was 0 n (%). For the same compound, the Rash (healthy participants [1]; [5]) was 0 n (%), the Vomiting (healthy participants [1]; [5]) was 1 (5) n (%) and the “AEs of moderate intensity” value (healthy participants [1]; 300-400 mg bid repeat dose) was 9 AEs. For the same compound, the “AEs of severe intensity” value (healthy participants [1]; 300-400 mg bid repeat dose) was 2 AEs, the Diarrhoea (healthy participants [1]; [6]) was 1 (2) n (%) and the Dizziness (healthy participants [1]; [6]) was 6 (11) n (%). For the same compound, the Fatigue (healthy participants [1]; [6]) was 2 (4) n (%), the “Hypersensitivity (allergy symptoms)” value (healthy participants [1]; [6]) was 2 (4) n (%) and the Nasopharyngitis (healthy participants [1]; [6]) was 6 (11) n (%). The Nausea (healthy participants [1]; [6]) was 4 (7) n (%), the Oropharyngeal pain (healthy participants [1]; [6]) was 2 (4) n (%) and the Pain in extremity (healthy participants [1]; [6]) was 0 n (%). The “Participants with any AE” value (healthy participants [1]; [6]) was 25 (46) n (%), the Pyrexia (healthy participants [1]; [6]) was 2 (4) n (%) and the Rash (healthy participants [1]; [6]) was 1 (2) n (%). The Vomiting (healthy participants [1]; [6]) was 3 (6) n (%), the Headache (healthy participants [1]; 300-400 mg bid repeat dosing, N = 54, listed as BIIB074, hydrochloride) was 11 (20) n (%) and the Tolerability (healthy participants [1]; 300-400 mg bid, 36 days) was “well tolerated”. For the same compound, the ECG changes (healthy participants [1]; day 1-35) was “no clinically significant ECG changes”, the “Participants withdrawn due to AEs while on BIIB074” value (healthy participants [1]; of 60 enrolled) was 5 participants and the “Serious AEs” value (healthy participants [1]; whole study) was “No serious AEs”. For the same compound, the “AUCinf, Geo LS mean ratio” value [2, 7] was 1.68, the “AUClast, Geo LS mean ratio” value [2, 7] was 1.69 and the “Cmax, Geo LS mean ratio” value [2, 7] was 0.97. For the same compound, the AUC(0-inf) ([2]; single dose BIIB074 alone) was 16000 ng·h/mL, the AUC(0-t) ([2]; single dose BIIB074 alone) was 15700 ng·h/mL and the Cmax ([2]; single dose BIIB074 alone) was 1310 ng/mL. It also gave an AUC(0-inf) [2, 8] of 26900 ng·h/mL, an AUC(0-t) [2, 8] of 26500 ng·h/mL and a Cmax [2, 8] of 1260 ng/mL. The “Elimination with valproic acid” value ([2]; in vivo) was “prolonged”, the “Exposure (AUC) with valproic acid compared to BIIB074 alone” value ([2]; in vivo) was “increased” and the “Exposure based on AUCinf and AUClast higher with valproic acid than alone” value ([2]; in vivo) was ~70%. The “Change in Cmax with valproic acid compared to BIIB074 alone” value ([2]; in vivo, listed as BIIB074, hydrochloride) was “no change”, the “Plasma exposure higher with valproic acid at steady state than alone” value ([2]; single dose) was “approximately 1.7 fold” and the Clinical efficacy ([3]; hydrochloride) was “EFFICACY OBSERVED in”. For the same compound, the Clinical efficacy ([3]; listed as CNV1014802, hydrochloride) was “demonstrated clinical benefit” and the “Non-inferiority to placebo, inpatient ABPM” value (healthy participants [4]) was “non-inferiority of BIIB074 compared with placebo was demonstrated”.

Reference: patent US20210154170A1, “METHODS OF TREATING NEUROPATHIC PAIN” (Biogen MA Inc., priority 2018, published 2021)
